Results reported in patent publication US20130149249A1, “IMAGING TUBERCULOSIS WITH PYRAZINAMIDE CONTRAST AGENTS” (GE HEALTHCARE LIMITED, priority 2010, published 2013).
In brackets after ≈: the same amount, converted by molar mass.

Columns and labels:
[1] = tested on: Mycobacterium tuberculosis H37Rv (ATCC 27294); experiment: Microplate Alamar Blue Assay (MABA); assay type: cell-based; details: M. tuberculosis H37Rv, BACTEC 12B medium, pH 6.8, concentration effecting 90% reduction in fluorescence relative to controls
Experimental: A series of in vitro tests were carried out to determine the properties of known compounds alongside a rhenium derivative of an in vivo imaging agent of the present invention. These tests were the Microplate Alamar Blue Assay (MABA) (Franzblau S et al., J Clin Microbiol 1998, 36, 362-366), the Low Oxygen Recovery Assay (LORA) (Cho et al., Antimicro Agents Chemother 2007, 51, 1380-1385), and the VERO cell cytotoxicity assay to determine IC 50 (Cory A H et al., Cancer Commun 1991, 3, 207-12).
The initial screen was conducted against Mycobacterium tuberculosis H37Rv (ATCC 27294) in BACTEC 12B medium using the Microplate Alamar Blue Assay (MABA). Compounds were tested in ten 2-fold dilutions, typically from 100 μg/mL to 0.19 μg/mL at pH 6.8. The MIC90 is defined as the concentration effecting a reduction in fluorescence of 90% relative to controls. This value was determined from the dose-response curve using a curve-fitting program.

[2] = tested on: VERO cell; experiment: VERO cell cytotoxicity assay; assay type: cell-based; details: Chlorocebus sabaeus, 72 hours exposure, Cell Titer Glo viability

Structure (SMILES) | MIC [1] [µg/mL] | IC50 [2] [µg/mL]
COc1ccc(CSCCNCCN(CCCN)CCSCc2ccc(OC)cc2)cc1 [Chelate alone] | 1.49 (≈ 3.12 µM) | > 50
COc1ccc(CSCCNCCN(CCCNC(=O)c2cnccn2)CCSCc2ccc(OC)cc2)cc1 [PZA + Chelate] | 10.4 | 36.8
NC(=O)c1cnccn1 [Standard drug, Pyrazinamide] | > 100 | –
